PubChem BioAssay (NCI)
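Growth conditions: 96-well plates. Treatment: test compound, 48 hours, 5 concentrations. Analysis: linear interpolation between bracketing concentrations; unreached endpoints set to highest concentration. TGI denotes the concentration required for complete inhibition of growth.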

Key:
Assay in all cases: growth of human tumour cells (NCI), 48 h
[1] = system: HCC-2998 colon
[2] = system: K-562 leukemia
[3] = system: EKVX NSCLC
[4] = system: MOLT-4 leukemia
[5] = system: A498 renal
[6] = system: COLO 205 colon
[7] = system: TK-10 renal
[8] = system: OVCAR-4 ovarian
[9] = system: A549 NSCLC
[10] = system: KM12 colon
[11] = system: SK-MEL-2 melanoma
[12] = system: SNB-19 CNS
[13] = system: SK-MEL-5 melanoma
[14] = system: ACHN renal
[15] = system: OVCAR-5 ovarian
[16] = system: NCI-H522 lung
[17] = system: RXF-631 renal
[18] = system: CCRF-CEM leukemia
[19] = system: HOP-62 NSCLC
[20] = system: DMS 114 small cell lung
[21] = system: CAKI-1 renal
[22] = system: M19-MEL melanoma
[23] = system: KM20L2 colon
[24] = system: SNB-75 CNS
[25] = system: U251 CNS
[26] = system: MALME-3M melanoma
[27] = system: LXFL 529 NSCLC
[28] = system: NCI-H460 lung
[29] = system: SK-MEL-28 melanoma
[30] = system: LOX IMVI melanoma
[31] = system: 786-0 renal
[32] = system: HCT-15 colon
[33] = system: HT29 colon
[34] = system: OVCAR-8 ovarian
[35] = system: RXF 393 renal
[36] = system: SF-268 CNS
[37] = system: OVCAR-3 ovarian
[38] = system: IGROV1 ovarian
[39] = system: UACC-62 melanoma
[40] = system: HOP-18 NSCLC
[41] = system: SF-539 CNS
[42] = system: M14 melanoma
[43] = system: HCT-116 colon
[44] = system: NCI-H226 lung
[45] = system: SW-620 colon
[46] = system: SN12C renal
[47] = system: UACC-257 melanoma
[48] = system: SK-OV-3 ovarian
[49] = system: NCI-H23 lung
[50] = system: SNB-78 CNS
[51] = system: SF-295 CNS
[52] = system: XF 498 CNS
[53] = system: HOP-92 NSCLC
[54] = system: DMS 273 small cell lung
[55] = system: HL-60(TB) leukemia
[56] = system: RPMI-8226 leukemia
[57] = system: UO-31 renal
[58] = system: SR leukemia

Measured: TGI

CN(C)CCn1cnc2sc3ccccc3c21
86.6 µM: [24]
not listed: [53] | [54] | [55] | [56] | [57] | [58]
> 100 µM: all other assays above

COc1ccc(C2SCc3nc4ccccc4n32)cc1 (configuration not stated)
65.8 µM: [5]
53.6 µM: [54]
13.7 µM: [56]
4.13 µM: [52]
5.43 µM: [55]
4.54 µM: [24]
6.25 µM: [23]
66.5 µM: [57]
14.9 µM: [13]
8.07 µM: [20]
7.02 µM: [33]
85.4 µM: [25]
45.5 µM: [4]
8.75 µM: [53]
5.42 µM: [16]
not listed: [1] | [6] | [8] | [9] | [10] | [15] | [19] | [31] | [35] | [43] | [47] | [58]
> 100 µM: all other assays above

N#CSCc1nc2ccc(Cl)cc2c(-c2ccccc2)[n+]1[O-]
55.2 µM: [8]
54.4 µM: [56]
26.4 µM: [35]
76.1 µM: [58]
39 µM: [15]
44.4 µM: [37]
51.9 µM: [10]
64.5 µM: [44]
30.5 µM: [14]
29.1 µM: [1]
35 µM: [33]
30.8 µM: [23]
42.1 µM: [42]
42.9 µM: [55]
62.5 µM: [26]
61.7 µM: [36]
36.9 µM: [39]
32.7 µM: [57]
72.5 µM: [20]
42.3 µM: [11]
41.6 µM: [4]
31.9 µM: [30]
40.9 µM: [3]
30.2 µM: [45]
39.2 µM: [18]
39.5 µM: [46]
87.7 µM: [2]
33.6 µM: [40]
39.7 µM: [43]
80.6 µM: [25]
33 µM: [52]
26.8 µM: [27]
88.2 µM: [24]
47.9 µM: [21]
32.1 µM: [31]
32.5 µM: [32]
27.7 µM: [29]
38.5 µM: [34]
34.7 µM: [53]
not listed: [13] | [16] | [38] | [41] | [48] | [49] | [54]
> 100 µM: all other assays above

COc1ccc(C2C(C#N)=C(O)NC(O)=C2C#N)cc1OC
not listed: [2] | [7] | [8] | [14] | [18] | [20] | [28] | [30] | [31] | [35] | [39] | [44] | [47] | [49] | [55]
> 100 µM: all other assays above
